Data: publication PMC10026764, “Overcoming the imatinib-resistant BCR-ABL mutants with new ureidobenzothiazole chemotypes endowed with potent and broad-spectrum anticancer activity” (Journal of Enzyme Inhibition and Medicinal Chemistry, 2023)
pIC50: −log10 of the molar value. Where two headings read alike, the source gives them in different places.

Experiments:
SK-MEL-28 = assay: NCI-60 five-dose SRB assay; assay type: cell-based; settings: Homo sapiens; SK-MEL-28, melanoma
ABL^H396P = ABL^H396P (Homo sapiens, UniProt P00519, H396P); assay: In vitro enzymatic activity, imatinib-resistant mutant panel; assay type: biochemical
NCI-60 cell lines = assay: NCI-60 single dose SRB assay (panel); assay type: cell-based; settings: single dose 10 μM
From the text: To gain further insights about the anticancer profile of this new ureidobenzothiazole chemotypes, the structures of all final compounds were submitted to the National Cancer Institute (NCI, Developmental Therapeutics Program, Bethesda, MD, USA). Based on NCI selection criteria, compounds 2b (AK-HW-90), 2e, and 2f were chosen for broad screening against a library of 60 human cancer cell lines, representing nine types of blood and solid cancers. Employing the highly sensitive sulforhodamine B (SRB) assay, compounds 2b, 2e, and 2f were tested initially at a single dose of 10 μM, and their detailed activities on the percentages growth of the NCI-60 cell lines were illustrated in Figure 5, and compared with that observed for the lead benzothiazole AKE-5l.

UACC-257 = assay: NCI-60 five-dose SRB assay; assay type: cell-based; settings: Homo sapiens; UACC-257, melanoma
NCI-H23 = assay: NCI-60 five-dose SRB assay; assay type: cell-based; settings: Homo sapiens; NCI-H23, non-small cell lung cancer
SK-OV-3 = assay: NCI-60 five-dose SRB assay; assay type: cell-based; settings: Homo sapiens; SK-OV-3, ovarian cancer
OVCAR-3 = assay: NCI-60 five-dose SRB assay; assay type: cell-based, human; settings: OVCAR-3, ovarian cancer; for GI50 / LC50 (concentration killing 50% of cells): Homo sapiens
SR = assay: NCI-60 five-dose SRB assay; assay type: cell-based, human; settings: leukaemia
NCI-H522 = assay: NCI-60 five-dose SRB assay; assay type: cell-based, human
U251 [1] = assay: cells; assay type: cell-based; settings: U251, CNS cancer; for GI50 / CC50: Homo sapiens, U-251; for CC50: read-out: LC50 (the source's name)
SF-539 = assay: NCI-60 five-dose SRB assay; assay type: cell-based; settings: Homo sapiens; SF-539, CNS cancer
SK-MEL-5 = assay: cells; assay type: cell-based; settings: SK-MEL-5, melanoma; for GI50 / LC50 (50% lethal concentration): Homo sapiens
PC-3 = assay: NCI-60 five-dose SRB assay; assay type: cell-based; settings: Homo sapiens; PC-3, prostate cancer
HT29 [2] = assay: NCI-60 five-dose SRB assay; assay type: cell-based, human; settings: HT29, colon cancer; for GI50 / CC50: Homo sapiens, HT-29; for CC50: read-out: LC50 (the source's name)
OVCAR-5 = assay: NCI-60 five-dose SRB assay; assay type: cell-based, human; settings: OVCAR-5, ovarian cancer; for GI50 / LC50 (50% net cell kill): Homo sapiens
UO-31 [3] = assay: NCI-60 five-dose SRB assay; assay type: cell-based, human; settings: UO-31, renal cancer; for GI50 / CC50: Homo sapiens; for CC50: read-out: LC50 (the source's name)
BCR-ABL^T315I = biological target: T1, BCR-ABL^T315I (Homo sapiens, UniProt P00519, T315I); assay: In vitro kinase screening (RBC), BCR-ABL^T315I; assay type: biochemical; settings: 10-dose IC50 mode, 3-fold serial dilution, 10 μM ATP
T1 construct: purchased Reaction Biology Corporation (RBC, Malvern, PA, USA)

CCRF-CEM = assay: NCI-60 five-dose SRB assay; assay type: cell-based; settings: Homo sapiens, leukaemia
SF-268 = assay: NCI-60 five-dose SRB assay; assay type: cell-based; settings: Homo sapiens; SF-268, CNS cancer
SNB-75 = assay: NCI-60 five-dose SRB assay; assay type: cell-based, human; settings: SNB-75, CNS cancer; for GI50 / CC50: Homo sapiens; for CC50: read-out: LC50 (the source's name)
BCR-ABL^WT = BCR-ABL^WT (Homo sapiens, UniProt P00519); assay: In vitro kinase screening (RBC), BCR-ABL^WT; assay type: biochemical; settings: 10-dose IC50 mode, 3-fold serial dilution, 10 μM ATP
MALME-3M = assay: NCI-60 five-dose SRB assay; assay type: cell-based; settings: Homo sapiens, melanoma
786-0 = assay: NCI-60 five-dose SRB assay; assay type: cell-based; settings: Homo sapiens; 786-0, renal cancer
TK-10 = assay: NCI-60 five-dose SRB assay; assay type: cell-based; settings: Homo sapiens; TK-10, renal cancer
M14 = assay: NCI-60 five-dose SRB assay; assay type: cell-based, human; settings: M14, melanoma; for GI50 / LC50 (concentration killing 50% of cells): Homo sapiens
BT-549 = assay: NCI-60 five-dose SRB assay; assay type: cell-based; settings: Homo sapiens; BT-549, breast cancer
CAKI-1 = tested on: CAKI-1; parameters: method as in earlier work; settings: imatinib mesylate NSC 743414, NCI data; cited from earlier work
KM12 = tested on: KM12; parameters: method as in earlier work; settings: imatinib mesylate NSC 743414, NCI data; cited from earlier work
MOLT-4 = tested on: MOLT-4; parameters: method as in earlier work; settings: imatinib mesylate NSC 743414, NCI data; cited from earlier work
IGROV1 = tested on: IGROV1; parameters: method as in earlier work; settings: imatinib mesylate NSC 743414, NCI data; cited from earlier work
HCT-116 = tested on: HCT-116; parameters: method as in earlier work; settings: imatinib mesylate NSC 743414, NCI data; cited from earlier work
NCI-H460 = tested on: NCI-H460; parameters: method as in earlier work; settings: imatinib mesylate NSC 743414, NCI data; cited from earlier work
SW-620 = tested on: SW-620; parameters: method as in earlier work; settings: imatinib mesylate NSC 743414, NCI data; cited from earlier work
UO-31 [4] = tested on: UO-31; parameters: method as in earlier work; settings: imatinib mesylate NSC 743414, NCI data; cited from earlier work
U251 [5] = tested on: U251; parameters: method as in earlier work; settings: imatinib mesylate NSC 743414, NCI data; cited from earlier work
HT29 [6] = tested on: HT29; parameters: method as in earlier work; settings: imatinib mesylate NSC 743414, NCI data; cited from earlier work
T-47D = tested on: T-47D; parameters: method as in earlier work; settings: imatinib mesylate NSC 743414, NCI data; cited from earlier work
[7] = Homo sapiens, NCI-H522, NCI-H522, non-small cell lung cancer

In the case of `CCN1CCN(c2ccc(NC(=O)Nc3nc4ccc(-c5ccccc5OC)cc4s3)cc2)CC1` [Compound 2b], the GI50 (SK-MEL-28) was 1760 nM, the pIC50 (ABL^H396P) was over 9.00 and the “number of cancer cells with lethal/cytotoxic effects (minus % growth values)” value (NCI-60 cell lines) was 55 cancer cells. For the same compound, the GI50 (UACC-257) was 2110 nM, the GI50 (NCI-H23) was 1670 nM and the GI50 (SK-OV-3) was 1790 nM. It also gave a GI50 (OVCAR-3) of 1640 nM, an LC50 (concentration killing 50% of cells) (OVCAR-3) of 5900 nM and a TGI (OVCAR-3) of 3110 nM. The GI50 (SR; Homo sapiens) was about 1700 nM, the GI50 (SR) was 1650 nM and the GI50 (NCI-H522; [7]) was about 1760 nM. The GI50 (NCI-H522; NCI-H522, non-small cell lung cancer) was 1750 nM, the GI50 (U251 [1]) was 1570 nM and the CC50 (U251 [1]) was 5510 nM. The TGI (U251 [1]) was 2940 nM, the GI50 (SF-539) was 1600 nM and the GI50 (SK-MEL-5) was 1730 nM. The LC50 (50% lethal concentration) (SK-MEL-5) was 5630 nM, the TGI (SK-MEL-5) was 3120 nM and the GI50 (PC-3) was 1790 nM. The TGI (HT29 [2]) was 2700 nM, the GI50 (HT29 [2]) was 1310 nM and the CC50 (HT29 [2]) was 5570 nM. The GI50 (OVCAR-5) was 1800 nM, the LC50 (50% net cell kill) (OVCAR-5) was 6330 nM and the TGI (OVCAR-5) was 3370 nM. The GI50 (UO-31 [3]) was 1520 nM, the CC50 (UO-31 [3]) was 5630 nM and the TGI (UO-31 [3]) was 2920 nM. The pIC50 (BCR-ABL^T315I) was 9.19, the GI50 (CCRF-CEM) was 1810 nM and the GI50 (SF-268) was 1870 nM. It also gave a GI50 (SNB-75) of 1490 nM, a CC50 (SNB-75) of 5460 nM and a TGI (SNB-75) of 2860 nM. It also gave a pIC50 (BCR-ABL^WT) of 9.15, a GI50 (MALME-3M) of 1710 nM and a GI50 (786-0) of 1800 nM. The GI50 (TK-10) was 2120 nM, the GI50 (M14) was 1620 nM and the LC50 (concentration killing 50% of cells) (M14) was 5660 nM. It also gave a TGI (M14) of 3030 nM and a GI50 (BT-549) of 1880 nM.

In the case of `COc1ccccc1-c1ccc2nc(NC(=O)Nc3cc(C(F)(F)F)cc(C(F)(F)F)c3)sc2c1` [Compound 2e], the GI50 (SK-MEL-28) was 2510 nM, the “number of cancer cells with lethal/cytotoxic effects (minus % growth values)” value (NCI-60 cell lines) was 21 cancer cells and the GI50 (UACC-257) was 2310 nM. It also gave a GI50 (NCI-H23) of 2020 nM, a GI50 (SK-OV-3) of 2920 nM and a GI50 (OVCAR-3) of 1580 nM. For the same compound, the LC50 (concentration killing 50% of cells) (OVCAR-3) was 16700 nM, the TGI (OVCAR-3) was 4580 nM and the GI50 (SR; Homo sapiens) was about 1700 nM. The GI50 (SR) was 1760 nM, the GI50 (NCI-H522; [7]) was 1760 nM and the GI50 (U251 [1]) was 2310 nM. The CC50 (U251 [1]) was 34400 nM, the TGI (U251 [1]) was 10300 nM and the GI50 (SF-539) was 1990 nM. For the same compound, the GI50 (SK-MEL-5) was 1570 nM, the LC50 (50% lethal concentration) (SK-MEL-5) was 5640 nM and the TGI (SK-MEL-5) was 2980 nM. The GI50 (PC-3) was 1490 nM, the TGI (HT29 [2]) was 9210 nM and the GI50 (HT29 [2]) was 2150 nM. It also gave a CC50 (HT29 [2]) of 33000 nM, a GI50 (OVCAR-5) of 2540 nM and an LC50 (50% net cell kill) (OVCAR-5) of 32700 nM. It also gave a TGI (OVCAR-5) of 9660 nM, a GI50 (UO-31 [3]) of 1790 nM and a CC50 (UO-31 [3]) of 9290 nM. It also gave a TGI (UO-31 [3]) of 4070 nM, a pIC50 (BCR-ABL^T315I) of 5.02 and a GI50 (CCRF-CEM) of 2430 nM. For the same compound, the GI50 (SF-268) was 2860 nM, the GI50 (SNB-75) was 2250 nM and the CC50 (SNB-75) was 45300 nM. It also gave a TGI (SNB-75) of 11800 nM, a pIC50 (BCR-ABL^WT) of 5.39 and a GI50 (MALME-3M) of 1810 nM. The GI50 (786-0) was 1440 nM, the GI50 (TK-10) was 4030 nM and the GI50 (M14) was 1540 nM. For the same compound, the LC50 (concentration killing 50% of cells) (M14) was 6730 nM, the TGI (M14) was 3220 nM and the GI50 (BT-549) was 1620 nM.

In the case of `Cc1ccc(NC(=O)c2ccc(CN3CCN(C)CC3)cc2)cc1Nc1nccc(-c2cccnc2)n1` [Imatinib], the GI50 (CAKI-1) is given as 34000 nM, the GI50 (KM12) is given as 18800 nM and the GI50 (MOLT-4) is given as 5130 nM. For the same compound, the GI50 (IGROV1) was 21200 nM, the GI50 (HCT-116) was 12600 nM and the GI50 (NCI-H460) was 16200 nM. For the same compound, the GI50 (SW-620) was 23400 nM, the GI50 (UO-31 [4]) was 22300 nM and the GI50 (U251 [5]) was 18000 nM. For the same compound, the GI50 (HT29 [6]) was 3970 nM and the GI50 (T-47D) was 19900 nM.
